Values of other authors in patent US20150086616A1, “METHOD FOR THE PREVENTION AND TREATMENT OF ALZHEIMER'S DISEASE” (priority 2013, published 2015).

Experiments:
Alzheimer's disease = conditions: for efficacy of oral NSAID as treatment of Alzheimer's disease: oral administration
[1] = highly lipophilic drugs
[2] = ophthalmic
[3] = after multiple oral doses of ibuprofen

Row | SMILES | direct cyclooxygenase inhibition (cyclooxygenase) | crossing of the blood brain barrier [1] | efficacy of oral NSAID as treatment of Alzheimer's disease (Alzheimer's disease) | further results
1 | C[C@H](C(=O)O)c1ccc(-c2ccccc2)c(F)c1 (single isomer, unassigned) [S-enantiomer of flurbiprofen] | is a cyclooxygenase inhibitor | – | – | –
2 | C[C@@H](C(=O)O)c1ccc(-c2ccccc2)c(F)c1 [R-flurbiprofen] | devoid of any direct cyclooxygenase inhibition | – | – | phase III clinical trial for the treatment of Alzheimer's disease (Alzheimer's disease; phase III clinical trial): failed
3 | O=C(O)Cc1ccccc1Nc1c(Cl)cccc1Cl [diclofenac] | – | readily cross the blood brain barrier | – | anti-inflammatory action compared with flurbiprofen [2]: more anti-inflammatory action; burning sensation compared with flurbiprofen [2]: less burning sensation
4 | CC(C(=O)O)c1ccc(-c2ccccc2)c(F)c1 (stereo not drawn) [flurbiprofen] | – | readily cross the blood brain barrier | not an effective treatment | –
5 | CC(C)Cc1ccc(C(C)C(=O)O)cc1 (stereo not drawn) [ibuprofen] | – | readily cross the blood brain barrier | not an effective treatment | brain concentration [3]: 0.4 µg/g; concentration in fat [3]: 58.4 μg/g tissue
